Laboratory results: patent US20240123022A1, “A STABLE ANTI-ANGIOGENIC AND ANTI-INFLAMMATORY PHARMACEUTICAL FORMULATION AND PHARMACEUTICAL COMBINATION FOR TREATMENT AND PREVENTION OF PSORIASIS” (priority 2021, published 2024)

Assays:
HaCaT cell lines = test: Cell cycle assay (Sub-G0/G1, pro-apoptotic effect); format: cell-based, human; conditions: 48 h, vs untreated
Source text: HaCaT cell lines were used as test system since it is widely used for studying anti-psoriatic effects. Curcumin dissolved in DMSO was taken as positive control for validation purpose. Apoptotic effect on HaCaT cell lines was detected by flow cytometry analysis.

[1] = test system: P-VEGFR-2, VEGFR-2, NRP-1, Akt, p-NRP1, P-Akt, ERK1/2, P-ERK1/2, p-38, P-p-38; test: Biomarker estimation by western blotting; format: cell-based; conditions: 500 and 1000 μg/ml, western blot
Source text: Targets screened are as follows: P-VEGFR-1, P-VEGFR-2, P-VEGFR-3, VEGFR-1, VEGFR-2, VEGFR-3, NRP-1, MPO, Akt, PAkt, ERK1/2, P-ERK1/2, MAPK, p-38, P-p-38, p-NRP1 and GAPDH.

HUVEC cells = test: Tube formation assay in HUVEC cells (VEGF induced); format: cell-based, human; parameters: Tube formation assay results, Avg: scale not given here
Procedure: HUVEC cells were used as test system to determine angiogenic effect of IS217 by assessing the inhibitory effects of test item on endothelial cells tube formation. Prior to the tube formation assay, test item of concentration ranging 0.01 μg/ml to 1000 μg/ml were used to treat endothelial cells for its cytotoxicity effect to assess suitable concentration for tube formation assay. […] The cells corresponding to positive control group were treated with bevacizumab of concentration 1000 μg/ml. The degree of angiogenesis progression was assessed based on visual pattern recognition of photomicrographs of HUVEC cells.

[2] = test system: TNF-α, IFN-γ, TARC, TSLP, IL-6, IL-8, IL-23, IL-17A and IL-1-0 levels; test: Cytokine levels in LPS stimulated RAW264.7 cells and HaCaT cells; format: cell-based; conditions: LPS stimulated RAW264.7 and HaCaT cells, vs untreated controls
Source text: In pathogenesis of psoriasis, angiogenesis and tyrosine kinases involves cell proliferation, cell migration, DNA Fragmentation and tube formation in endothelial cells. […] RAW264.7 cells (Murine macrophage cell line) which is stimulated with LPS and in HaCaT cells human keratinocytes (HaCaT) TNF-α, IFN-γ, TARC, TSLP, IL-6, IL-8, IL-23, IL-17A and IL-1-0 levels were overexpressed in disease pathogenesis, but when treated with IS217, all the above mentioned cytokines levels are decreased when compared with untreated controls.

[3] = test system: IMQ induced psoriasis model using Balb/c mice; format: in vivo
Procedure: The experimental procedure and doses and route of administration are same as IMQ model. Test item IS217 was administered subcutaneously to diseased animals at different dose levels of 0.15 mg/kg, 0.30 mg/kg, 0.60 mg/kg, 1.2 mg/kg, 2.4 mg/kg and 4.8 mg/kg.

[4] = Stability of IS217 API, long-term condition −20 ± 5° C.; format: physicochemical; conditions: for Appearance, change / Assessment of container closure system, change / Clarity of solution, change / Color of Solution, change / Color, change / Odor, change: long-term −20 ± 5° C.
Procedure: The purpose of stability testing is to provide evidence on how the quality of a drug substance or drug product varies with time under the influence of a variety of environmental factors such as temperature, humidity, etc. and to establish a re-test period for the drug substance or a shelf life for the drug product and recommended storage conditions. The study was conducted according to the WHO and Schedule-Y guidelines.
The drug substance is a lyophilized white fluffy powder, and it was filled at sterile condition in glass injection vial which has airlock-rubber capping. This container closure system is the same as or simulates the packaging proposed for storage and distribution.
This study has included testing of those attributes of the drug substance that are susceptible to change during storage and are likely to influence quality, safety and/or efficacy. The testing was covered, as appropriate, the physical and chemical attributes.
The following test attributes have been selected according to above said guidelines. • Appearance; odour; colour; colour of solution (when the drug substance is soluble in solvent); clarity of solution; degradation and assessment of container closure system
Testing frequency for long-term studies have been designed as per schedule Y. […]
The studies were conducted under appropriate storage conditions (with appropriate tolerances) that test drug substance thermal stability and its sensitivity to moisture. The drug substance is intended to store for 24 months. Accordingly, long term stability studies were done for 24 months. The details of the storage conditions have been furnished hereunder.
23.4: Long term stability study results Name of the Product: IS217; Batch size: 200 m·mol; Storage Conditions: −20±5° C.

Substance: H-FAKKFAKKFK-OH [IS217, H-Phe-Ala-Lys-Lys-Phe-Ala-Lys-Lys-Phe-Lys-OH]
- increase in pro-apoptotic cells (Sub-G0/G1 population) (HaCaT cell lines; 100 μg/mL): 1.2 fold
- increase in pro-apoptotic cells (Sub-G0/G1 population) (HaCaT cell lines; 500 μg/mL): 5.0 fold
- increase in pro-apoptotic cells (Sub-G0/G1 population) (HaCaT cell lines; 1000 μg/mL): 6.8 fold
- increase in pro-apoptotic cells (Sub-G0/G1 population) (HaCaT cell lines; 5000 μg/mL): 1.1 fold
- protein levels of P-VEGFR-2, VEGFR-2, NRP-1, Akt, p-NRP1, P-Akt, ERK1/2, P-ERK1/2, p-38, P-p-38 [1]: downregulated
- Tube formation assay results, Avg (HUVEC cells; 100 μg + VEGF): 2.55
- Tube formation assay results, Avg (HUVEC cells; 100 μg, without VEGF): 0.33
- Tube formation assay results, Avg (HUVEC cells; 250 μg + VEGF): 1.33
- Tube formation assay results, Avg (HUVEC cells; 250 μg, without VEGF): 0.33
- Tube formation assay results, Avg (HUVEC cells; 500 μg + VEGF): 0.88
- Tube formation assay results, Avg (HUVEC cells; 500 μg, without VEGF): 0.33
- Tube formation assay results, Avg (HUVEC cells; 1000 μg + VEGF): 0.55
- Tube formation assay results, Avg (HUVEC cells; 1000 μg, without VEGF): 0.33
- inhibition of endothelial morphogenesis on matrigel (HUVEC cells; HUVEC, 1000 μg/ml): Complete inhibition
- endothelial tube formation (HUVEC cells; HUVEC, all test concentrations 100 μg/ml to 1000 μg/ml): block endothelial tube formation
- cytokines levels (TNF-α, IFN-γ, TARC, TSLP, IL-6, IL-8, IL-23, IL-17A, IL-1-0) [2]: decreased
- inhibition of ear thickness ([3]; 0.3 mg/kg SC): 36.34%
- psoriatic score PASI and ear punch biopsy ([3]; IS217 SC 0.15-4.8 mg/kg q.d., 8 days): lowering of
- TNF-α level ([3]; SC 0.15-4.8 mg/kg): no trend
- ear thickness (life phase), punch biopsy, cumulative psoriatic scoring and spleen weight ([3]; dose level of 0.3 mg/kg SC): maximum effect
- Ear homogenate TNF-α, IL-23, MPO ([3]; p < 0.01): MPO reduction
- stability of IS217 API ([4]; 6 months at long term stability condition −20 ± 5° C.): stable
- Appearance, change ([4]; 1st month): No change
- Assessment of container closure system, change ([4]; 1st month): No change
- Clarity of solution, change ([4]; 1st month): No change
- Color of Solution, change ([4]; 1st month): No change
- Color, change ([4]; 1st month): No change
- Odor, change ([4]; 1st month): No change
- Appearance, change ([4]; 2nd month): No change
- Assessment of container closure system, change ([4]; 2nd month): No change
- Clarity of solution, change ([4]; 2nd month): No change
- Color of Solution, change ([4]; 2nd month): No change
- Color, change ([4]; 2nd month): No change
- Odor, change ([4]; 2nd month): No change
- Appearance, change ([4]; 3rd month): No change
- Assessment of container closure system, change ([4]; 3rd month): No change
- Clarity of solution, change ([4]; 3rd month): No change
- Color of Solution, change ([4]; 3rd month): No change
- Color, change ([4]; 3rd month): No change
- Odor, change ([4]; 3rd month): No change
- Appearance, change ([4]; 6th month): No change
- Assessment of container closure system, change ([4]; 6th month): No change
- Clarity of solution, change ([4]; 6th month): No change
- Color of Solution, change ([4]; 6th month): No change
- Color, change ([4]; 6th month): No change
- Odor, change ([4]; 6th month): No change
- API calculated on the anhydrous basis (OAB) ([4]; −20 ± 5° C., 1 M): 98.98%
- Related substances (By HPLC), Any Max. Impurity ([4]; −20 ± 5° C., 1 M): 0.64%
- Related substances (By HPLC), Total Impurity ([4]; −20 ± 5° C., 1 M): 0.85%
- Solubility (Soluble in water) ([4]; −20 ± 5° C., 1 M): Complies
- Water Content (By Karl Fischer-Titrator) ([4]; −20 ± 5° C., 1 M): 4.89% w/w
- API calculated on the anhydrous basis (OAB) ([4]; −20 ± 5° C., 2 M): 99.14%
- Related substances (By HPLC), Any Max. Impurity ([4]; −20 ± 5° C., 2 M): 0.64%
- Related substances (By HPLC), Total Impurity ([4]; −20 ± 5° C., 2 M): 0.85%
- Solubility (Soluble in water) ([4]; −20 ± 5° C., 2 M): Complies
- Water Content (By Karl Fischer-Titrator) ([4]; −20 ± 5° C., 2 M): 4.83% w/w
- API calculated on the anhydrous basis (OAB) ([4]; −20 ± 5° C., 3 M): 99.15%
- Related substances (By HPLC), Any Max. Impurity ([4]; −20 ± 5° C., 3 M): 0.72%
- Related substances (By HPLC), Total Impurity ([4]; −20 ± 5° C., 3 M): 0.85%
- Solubility (Soluble in water) ([4]; −20 ± 5° C., 3 M): Complies
- Water Content (By Karl Fischer-Titrator) ([4]; −20 ± 5° C., 3 M): 4.52% w/w
- API calculated on the anhydrous basis (OAB) ([4]; −20 ± 5° C., 6 M): 99.40%
- Related substances (By HPLC), Any Max. Impurity ([4]; −20 ± 5° C., 6 M): 0.35%
- Related substances (By HPLC), Total Impurity ([4]; −20 ± 5° C., 6 M): 0.61%
- Solubility (Soluble in water) ([4]; −20 ± 5° C., 6 M): Complies
- Water Content (By Karl Fischer-Titrator) ([4]; −20 ± 5° C., 6 M): 4.99% w/w
- API calculated on the anhydrous basis (OAB) ([4]; −20 ± 5° C., Initial): 99.28%
- Related substances (By HPLC), Any Max. Impurity ([4]; −20 ± 5° C., Initial): 0.60%
- Related substances (By HPLC), Total Impurity ([4]; −20 ± 5° C., Initial): 0.72%
- Remark ([4]; −20 ± 5° C., Initial): Complies
- Solubility (Soluble in water) ([4]; −20 ± 5° C., Initial): Complies
- Water Content (By Karl Fischer-Titrator) ([4]; −20 ± 5° C., Initial): 4.66% w/w
